Measured values published in ChEMBL document CHEMBL5154928, “Structure-Aided Design, Synthesis, and Biological Evaluation of Potent and Selective Non-Nucleoside Inhibitors Targeting Protein Arginine Methyltransferase 5” (J Med Chem, 2022).

Columns and labels:
[1] = target: Histone-lysine N-methyltransferase 2A (Homo sapiens, UniProt Q03164); experiment: Inhibition of MLL1 (unknown origin) using peptide substrate preincubated for 10 mins followed by substrate addition for 4 hrs by HTRF assay
[2] = tested on: A-375; experiment: Induction of apoptosis in human A-375 cells assessed as total apoptotic cells at 2 uM incubated for 48 hrs by Annexin-V FITC/PI staining based flow cytometry analysis relative to control; format: functional
[3] = Plasma protein binding in mouse by LC-MS/MS analysis; format: ADME, cell-free; settings: read-out: PPB (converted)
[4] = Plasma protein binding in rat by LC-MS/MS analysis; format: ADME, cell-free; settings: read-out: PPB (converted)
[5] = target: Histone-lysine N-methyltransferase 2B (Homo sapiens, UniProt Q9UMN6); experiment: Inhibition of MLL4 (unknown origin) using peptide substrate preincubated for 10 mins followed by substrate addition for 4 hrs by HTRF assay
[6] = target: Protein arginine N-methyltransferase 5 (Homo sapiens, UniProt O14744); experiment: Displacement of [3H]-SAM from PRMT5 (unknown origin) using peptide substrate preincubated for 15 mins followed by substrate addition for 60 mins by radioactive biochemical assay
[7] = Toxicity in BALB/c mouse xenografted with human A375 cells assessed as change in body weight at 75 mg/kg, po qd for 19 days and measured every 3 days; format: organism-based, A-375; settings: in vivo, 456 h, time 19 day
[8] = Half life in Sprague-Dawley rat at 10 mg/kg, po measured for 0.25 to 24 hrs by LC-MS/MS analysis; format: ADME, organism-based; settings: in vivo, time 0.25-24 hrs
[9] = Oral bioavailability in Sprague-Dawley rat at 10 mg/kg, measured for 0.25 to 24 hrs by LC-MS/MS analysis; format: ADME, organism-based; settings: in vivo, time 0.25-24 hrs
[10] = Volume of distribution at steady state in Sprague-Dawley rat at 3 mg/kg, iv measured for 0.25 to 24 hrs by LC-MS/MS analysis; format: ADME, organism-based; settings: in vivo, time 0.25-24 hrs, read-out: Vdss
[11] = target: Histone-lysine N-methyltransferase EZH2 (Homo sapiens, UniProt Q15910); experiment: Inhibition of EZH2 (unknown origin) using peptide substrate preincubated for 10 mins followed by substrate addition for 4 hrs by HTRF assay
[12] = AUC (0 to infinity) in Sprague-Dawley rat at 10 mg/kg, po measured for 0.25 to 24 hrs by LC-MS/MS analysis; format: ADME, organism-based; set-up: dose 10 mg/kg, time upper 24 hrs, time lower 0.25 hrs, route po; settings: in vivo
[13] = Metabolic stability in mouse liver microsomes assessed as clearance measured up to 60 mins in presence of NADPH by LC-MS/MS analysis; format: ADME, Microsome; settings: 1 h
[14] = Cmax in Sprague-Dawley rat at 10 mg/kg, po measured for 0.25 to 24 hrs by LC-MS/MS analysis; format: ADME, organism-based; set-up: time lower 0.25 hrs, dose 10 mg/kg, time upper 24 hrs, route po; settings: in vivo
[15] = Half life in Sprague-Dawley rat at 3 mg/kg, iv measured for 0.25 to 24 hrs by LC-MS/MS analysis; format: ADME, organism-based; settings: in vivo, time 0.25-24 hrs
[16] = tested on: A-375; experiment: Induction of apoptosis in human A-375 cells assessed as total apoptotic cells at 0.5 uM incubated for 48 hrs by Annexin-V FITC/PI staining based flow cytometry analysis relative to control; format: functional
[17] = Metabolic stability in human liver microsomes assessed as half life incubated for 10 mins measured up to 60 mins in presence of NADPH by LC-MS/MS analysis; format: ADME, Microsome
[18] = tested on: A-375; experiment: Antitumor activity against human A-375 cells xenografted in BALB/c mouse assessed as tumor growth inhibition at 75 mg/kg, po qd for 19 days and measured every 3 days; format: functional; settings: A-375, 456 h, time 19 day, read-out: TGI
[19] = Metabolic stability in mouse liver microsomes assessed as half life measured up to 60 mins in presence of NADPH by LC-MS/MS analysis; format: ADME, Microsome
[20] = AUC (0 to infinity) in Sprague-Dawley rat at 3 mg/kg, iv measured for 0.25 to 24 hrs by LC-MS/MS analysis; format: ADME, organism-based; set-up: time 0.25-24 hrs, dose 3 mg/kg, route iv; settings: in vivo
[21] = tested on: A-375; experiment: Induction of apoptosis in human A-375 cells assessed as total apoptotic cells at 1 uM incubated for 48 hrs by Annexin-V FITC/PI staining based flow cytometry analysis relative to control; format: functional

Chain of Histone-lysine N-methyltransferase 2A (Q03164 1-2718 limits assumed): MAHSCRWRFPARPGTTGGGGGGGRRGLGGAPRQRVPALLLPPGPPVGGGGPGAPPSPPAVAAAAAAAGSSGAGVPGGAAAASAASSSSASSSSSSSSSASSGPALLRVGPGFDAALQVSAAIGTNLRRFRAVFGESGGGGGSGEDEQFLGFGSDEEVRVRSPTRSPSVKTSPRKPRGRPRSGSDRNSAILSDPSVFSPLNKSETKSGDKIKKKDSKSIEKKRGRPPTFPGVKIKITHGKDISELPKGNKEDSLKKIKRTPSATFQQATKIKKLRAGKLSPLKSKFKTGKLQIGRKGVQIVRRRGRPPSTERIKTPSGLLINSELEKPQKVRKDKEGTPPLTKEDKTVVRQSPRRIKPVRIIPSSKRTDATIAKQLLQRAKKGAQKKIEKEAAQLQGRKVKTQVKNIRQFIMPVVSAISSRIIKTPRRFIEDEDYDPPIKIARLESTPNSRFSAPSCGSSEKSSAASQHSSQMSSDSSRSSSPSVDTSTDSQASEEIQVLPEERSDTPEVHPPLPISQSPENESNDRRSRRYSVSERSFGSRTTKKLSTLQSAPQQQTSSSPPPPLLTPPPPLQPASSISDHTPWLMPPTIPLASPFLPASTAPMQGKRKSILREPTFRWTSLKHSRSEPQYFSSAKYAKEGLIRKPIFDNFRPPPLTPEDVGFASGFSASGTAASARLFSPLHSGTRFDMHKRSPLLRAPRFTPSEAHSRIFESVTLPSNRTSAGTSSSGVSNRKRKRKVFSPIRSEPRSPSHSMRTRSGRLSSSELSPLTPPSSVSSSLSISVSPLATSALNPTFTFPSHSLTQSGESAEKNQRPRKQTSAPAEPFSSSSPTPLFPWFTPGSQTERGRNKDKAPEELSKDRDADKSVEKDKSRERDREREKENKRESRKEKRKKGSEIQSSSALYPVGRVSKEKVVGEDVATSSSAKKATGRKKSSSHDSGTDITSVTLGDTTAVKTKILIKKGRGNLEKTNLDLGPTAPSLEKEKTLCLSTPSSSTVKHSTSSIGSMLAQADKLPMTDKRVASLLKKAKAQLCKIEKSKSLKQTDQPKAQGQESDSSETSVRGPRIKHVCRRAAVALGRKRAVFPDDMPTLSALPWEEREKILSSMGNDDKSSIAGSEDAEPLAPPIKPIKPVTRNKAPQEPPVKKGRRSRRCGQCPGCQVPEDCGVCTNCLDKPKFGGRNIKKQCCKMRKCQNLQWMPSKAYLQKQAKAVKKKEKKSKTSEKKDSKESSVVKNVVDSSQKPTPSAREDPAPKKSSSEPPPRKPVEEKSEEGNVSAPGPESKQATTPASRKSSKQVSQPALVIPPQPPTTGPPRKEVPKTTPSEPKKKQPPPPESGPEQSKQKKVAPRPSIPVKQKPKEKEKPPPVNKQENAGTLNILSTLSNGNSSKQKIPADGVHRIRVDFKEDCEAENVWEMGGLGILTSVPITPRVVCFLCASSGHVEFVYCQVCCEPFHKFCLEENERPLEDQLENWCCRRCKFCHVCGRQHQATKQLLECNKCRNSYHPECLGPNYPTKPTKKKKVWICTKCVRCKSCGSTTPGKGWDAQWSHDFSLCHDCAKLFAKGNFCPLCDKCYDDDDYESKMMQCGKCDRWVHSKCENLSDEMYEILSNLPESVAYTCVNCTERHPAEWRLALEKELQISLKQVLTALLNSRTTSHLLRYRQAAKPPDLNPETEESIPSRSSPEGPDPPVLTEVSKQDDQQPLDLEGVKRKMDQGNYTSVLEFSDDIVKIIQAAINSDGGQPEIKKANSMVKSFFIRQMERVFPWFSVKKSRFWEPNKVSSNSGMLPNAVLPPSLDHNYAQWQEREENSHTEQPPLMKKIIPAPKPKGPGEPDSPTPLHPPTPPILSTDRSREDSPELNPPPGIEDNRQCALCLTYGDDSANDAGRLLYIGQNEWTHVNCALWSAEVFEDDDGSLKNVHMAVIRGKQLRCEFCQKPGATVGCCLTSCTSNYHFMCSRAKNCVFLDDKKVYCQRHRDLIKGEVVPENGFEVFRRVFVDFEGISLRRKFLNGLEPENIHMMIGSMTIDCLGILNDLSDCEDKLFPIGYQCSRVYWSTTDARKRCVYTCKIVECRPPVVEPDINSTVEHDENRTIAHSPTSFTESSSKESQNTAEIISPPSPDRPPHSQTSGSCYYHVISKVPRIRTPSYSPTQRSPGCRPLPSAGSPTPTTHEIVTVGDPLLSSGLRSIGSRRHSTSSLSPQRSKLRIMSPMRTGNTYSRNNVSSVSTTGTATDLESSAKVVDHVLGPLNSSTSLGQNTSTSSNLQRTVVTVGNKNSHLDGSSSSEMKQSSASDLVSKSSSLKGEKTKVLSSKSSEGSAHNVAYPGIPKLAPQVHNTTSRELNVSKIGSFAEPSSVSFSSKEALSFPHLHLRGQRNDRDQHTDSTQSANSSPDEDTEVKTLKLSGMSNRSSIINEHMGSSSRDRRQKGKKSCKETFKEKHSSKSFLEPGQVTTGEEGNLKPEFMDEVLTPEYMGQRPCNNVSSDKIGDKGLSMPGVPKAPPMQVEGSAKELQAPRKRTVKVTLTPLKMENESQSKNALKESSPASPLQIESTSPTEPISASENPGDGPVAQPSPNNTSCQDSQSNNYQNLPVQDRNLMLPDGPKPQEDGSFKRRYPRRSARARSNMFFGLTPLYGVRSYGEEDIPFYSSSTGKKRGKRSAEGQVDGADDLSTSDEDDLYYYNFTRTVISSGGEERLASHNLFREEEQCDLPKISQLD
Chain of Histone-lysine N-methyltransferase 2A (Q03164 2719-3969 limits assumed): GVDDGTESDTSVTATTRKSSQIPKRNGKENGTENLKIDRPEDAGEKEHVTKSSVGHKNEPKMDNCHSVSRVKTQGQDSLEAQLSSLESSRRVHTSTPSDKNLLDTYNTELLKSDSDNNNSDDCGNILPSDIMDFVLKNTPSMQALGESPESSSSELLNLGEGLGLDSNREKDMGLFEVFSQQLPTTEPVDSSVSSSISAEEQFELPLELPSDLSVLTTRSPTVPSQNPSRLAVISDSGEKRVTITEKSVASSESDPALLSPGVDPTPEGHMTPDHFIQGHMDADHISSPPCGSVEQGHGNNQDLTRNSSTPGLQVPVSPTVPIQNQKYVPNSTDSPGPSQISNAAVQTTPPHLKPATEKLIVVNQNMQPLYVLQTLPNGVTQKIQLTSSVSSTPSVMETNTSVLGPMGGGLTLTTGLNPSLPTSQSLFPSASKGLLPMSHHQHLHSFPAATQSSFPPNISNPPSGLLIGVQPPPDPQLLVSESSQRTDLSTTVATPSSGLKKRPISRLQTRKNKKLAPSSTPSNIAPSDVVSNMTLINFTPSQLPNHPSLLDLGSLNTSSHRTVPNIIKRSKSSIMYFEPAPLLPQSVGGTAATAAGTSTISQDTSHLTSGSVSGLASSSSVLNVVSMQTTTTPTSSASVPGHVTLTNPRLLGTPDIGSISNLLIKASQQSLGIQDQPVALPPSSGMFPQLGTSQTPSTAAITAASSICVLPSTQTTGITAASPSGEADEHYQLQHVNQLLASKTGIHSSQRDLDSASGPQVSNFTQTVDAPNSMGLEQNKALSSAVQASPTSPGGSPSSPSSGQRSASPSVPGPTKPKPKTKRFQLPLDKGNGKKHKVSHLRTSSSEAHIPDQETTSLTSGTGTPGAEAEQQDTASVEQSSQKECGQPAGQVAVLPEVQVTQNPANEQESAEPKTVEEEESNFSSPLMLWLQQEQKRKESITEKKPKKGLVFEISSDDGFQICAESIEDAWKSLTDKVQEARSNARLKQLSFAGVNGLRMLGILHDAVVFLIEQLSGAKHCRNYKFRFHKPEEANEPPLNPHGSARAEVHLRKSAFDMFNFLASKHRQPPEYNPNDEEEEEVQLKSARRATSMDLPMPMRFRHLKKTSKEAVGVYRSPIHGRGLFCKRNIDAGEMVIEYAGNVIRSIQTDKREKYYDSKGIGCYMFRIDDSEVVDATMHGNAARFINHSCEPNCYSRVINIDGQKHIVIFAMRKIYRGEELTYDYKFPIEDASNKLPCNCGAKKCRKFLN
Chain of Histone-lysine N-methyltransferase EZH2 (Q15910 whole entry): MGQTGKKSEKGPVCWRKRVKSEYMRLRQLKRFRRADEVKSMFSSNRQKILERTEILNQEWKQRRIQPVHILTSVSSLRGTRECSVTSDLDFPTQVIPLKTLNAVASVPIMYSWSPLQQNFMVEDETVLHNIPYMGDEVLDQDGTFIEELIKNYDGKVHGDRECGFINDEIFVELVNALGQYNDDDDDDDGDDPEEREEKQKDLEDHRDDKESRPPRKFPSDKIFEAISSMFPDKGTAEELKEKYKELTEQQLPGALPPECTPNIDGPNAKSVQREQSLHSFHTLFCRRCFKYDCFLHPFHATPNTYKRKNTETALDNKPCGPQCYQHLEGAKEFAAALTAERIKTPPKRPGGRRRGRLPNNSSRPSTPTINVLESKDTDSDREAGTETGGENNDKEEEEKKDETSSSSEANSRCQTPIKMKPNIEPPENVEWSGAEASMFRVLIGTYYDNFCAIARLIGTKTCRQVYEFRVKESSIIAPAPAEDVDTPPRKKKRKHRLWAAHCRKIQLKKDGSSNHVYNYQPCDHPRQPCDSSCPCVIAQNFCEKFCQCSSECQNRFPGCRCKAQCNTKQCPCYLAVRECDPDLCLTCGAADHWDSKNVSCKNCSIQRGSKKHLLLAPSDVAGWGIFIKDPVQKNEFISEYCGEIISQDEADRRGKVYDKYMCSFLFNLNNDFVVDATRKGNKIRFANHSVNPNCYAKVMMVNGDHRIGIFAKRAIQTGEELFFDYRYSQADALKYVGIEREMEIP

For `C[C@H](Oc1ccc(-c2cc3c(C4=CCNCC4)ncnc3[nH]2)cc1)c1ccccc1`, the IC50 [1] was > 20 µM, the Activity [2] was 66.39% and the fraction unbound [3] was 0.003. For the same compound, the fraction unbound [4] was 0.014, the IC50 [5] was > 20 µM and the IC50 [6] was 23.9 nM. For the same compound, the Activity [7] was “Non-Toxic”, the half-life [8] was 451 min and the bioavailability [9] was 7.25%. For the same compound, the Vd [10] was 62.5 L/kg, the IC50 [11] was > 20 µM and the AUC [12] was 65.3 h/ng/mL. It also gave a CLH [13] of 30.7 mL/min/g, a Cmax [14] of 8.22 ng/mL and a half-life [15] of 155 min. It also gave an Activity [16] of 5.58%, a half-life [17] of 41.8 min and an inhibition in vivo at 75 mg/kg [18] of 73%. For the same compound, the half-life [19] was 68.4 min, the AUC [20] was 173 h/ng/mL and the Activity [21] was 14.14%.
